Measurements taken from US20250154154A1 (Relay Binney Street, 2nd Floor, priority 2020, published 2025).
pIC50: −log10 of the molar value.

What was measured:
SRC = SRC (Homo sapiens, UniProt P12931); experiment: SRC Biochemical Assay Protocol (microfluidic mobility shift assay, FLPeptide4 substrate)
Procedure: SRC Biochemical Assay Protocol
Src biochemical kinase activity was measured using a surrogate fluorescent peptide substrate [FLPeptide4; 5-FAM-EGIYGVLFKKK-CONH2 (PerkinElmer Cat. No. 760348)] with a microfluidic mobility shift assay. Reactions were performed in 384-well flat bottom polystyrene microplates (Corning Cat. No. 3570) at a final volume of 20 μL in 50 mM HEPES pH 7.4, 1 mM EGTA, 10 mM MgCl2, 0.01% Brij-35, 2 mM DTT, 0.05% BSA, 1% DMSO. Inhibition experiments were performed with compounds of the invention varying from 0.0017-100 μM with 0.26 nM SRC, 1.5 μM FLPeptide4, and 50 μM ATP. Specifically, 15 μl 1.3× mixtures of SRC+FLPeptide4+compounds were preincubated for 30 minutes at room temperature followed by addition of 5 μL 4×ATP. Reactions were carried out for 90 minutes then quenched with 40 μl 500 mM EDTA. Phosphorylated peptide product was measured with a mobility shift assay using a LabChip® EZ Reader system (PerkinElmer Cat. No. 122919). Inhibition ratios were calculated relative to neutral controls and IC50 values were obtained from dose response data fitted to a 4-parameter logistic model.

RBE cells = experiment: Cell Viability Protocol (CellTiterGlo), RBE cells; assay type: cell-based; details: RBE or SNU-1079 cells, 72 or 120 hour, cell line and time not given
Procedure: RBE or SNU-1079 cells were cultured in T-75 or T-175 flasks at 37° C., 5% CO2, 95% relative humidity in RPMI 1640 medium with 10% FBS and 1% Penicillin/Streptomycin (media) and detached with 0.25% trypsin/EDTA at 80-90% confluency. Cells were then seeded in 40 μL media per well in 384-well flat-bottom polystyrene microplates (Corning Cat. No. 3570) at a seeding density of 1200 cells/well and incubated for 24 hours at 37° C. with 5% CO2, 95% relative humidity. On the next day, test compounds were prepared in 10 mM DMSO stock solution and diluted to the indicated concentrations in a 384-well compound source plate. DMSO was employed as a vehicle control. Compounds (40 nL) were transferred to 384-well cell culture plate(s) using the liquid handler Echo550. Plates were incubated at 37° C. with 5% CO2 for 72 hour or 120 hour (as indicated). CellTiterGlo reagent was warmed to 37° C. and added into each well (40 μL per well). Plates were incubated at room temperature for 30 min followed by reading on the EnSpire or EnVision plate reader. Relative viability (% remaining activity) was calculated relative to DMSO control and IC50 values were obtained from dose-response data fitted to a 4-parameter curve.

Chain of SRC (P12931 whole entry, species assumed): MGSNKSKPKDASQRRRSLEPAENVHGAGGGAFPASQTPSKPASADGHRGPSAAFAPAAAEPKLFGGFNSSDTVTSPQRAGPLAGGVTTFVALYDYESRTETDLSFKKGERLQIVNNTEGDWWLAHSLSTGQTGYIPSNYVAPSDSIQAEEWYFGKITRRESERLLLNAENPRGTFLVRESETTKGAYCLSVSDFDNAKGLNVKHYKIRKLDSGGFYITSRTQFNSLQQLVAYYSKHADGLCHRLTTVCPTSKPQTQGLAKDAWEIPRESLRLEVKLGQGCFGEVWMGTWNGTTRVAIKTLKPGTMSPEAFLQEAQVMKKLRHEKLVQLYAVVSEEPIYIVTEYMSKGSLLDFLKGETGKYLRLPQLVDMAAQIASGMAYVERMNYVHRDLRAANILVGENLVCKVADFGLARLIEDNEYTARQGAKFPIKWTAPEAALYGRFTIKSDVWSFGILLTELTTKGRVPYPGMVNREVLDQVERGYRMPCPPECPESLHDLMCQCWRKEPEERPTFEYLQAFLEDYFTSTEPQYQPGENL

Row | SMILES | pIC50 (SRC) | pIC50 (RBE cells)
1 | CC(C)n1c(C#CC2CCN(C(=O)CCl)CC2)c(-c2ccc(Oc3ccccc3)cc2)c2c(N)ncnc21 [Example I-29] | 6.00 to 8.00 | 6.00 to 8.00
2 | C=CC(=O)N1CCC(C#Cc2c(-c3ccc(Oc4ccccc4)cc3)c3c(N)ncnc3n2C2CC(O)C2)CC1 (centres unmarked) [Example I-69] | 6.00 to 8.00 | 6.00 to 8.00
3 | COCCN(C)C/C=C/C(=O)N1C[C@@H]2[C@@H](C#Cc3c(-c4ccc(Oc5ccccc5)cc4)c4c(N)ncnc4n3C)[C@@H]2C1 [II-224, (E)-1-((1R,5S,6s)-6-((4-amino-7-methyl-5-(4-phenoxyphenyl)-7H-pyrrolo[2,3-d]pyrimidin-6-yl)ethynyl)-3-azabicyclo[3.1.0]hexan-3-yl)-4-((2-methoxyethyl) (methyl)amino)but-2-en-1-one] | 6.00 to 8.00 | 6.00 to 8.00
4 | C=CC(=O)N1CCC(O)(C#Cc2c(-c3ccc(Oc4ccccc4)cc3)c3c(N)ncnc3n2C2CCOC2)CC1 (centres unmarked) [Example I-70] | ≥ 8.00 | ≥ 8.00
5 | CC(C)n1c(C#CC2CCN(C(CO)c3ccccc3)CC2)c(-c2ccc(Oc3ccccc3)cc2)c2c(N)ncnc21 (centres unmarked) [II-143, 2-(4-((4-amino-7-isopropyl-5-(4-phenoxyphenyl)-7H-pyrrolo[2,3-d]pyrimidin-6-yl)ethynyl)piperidin-1-yl)-2-phenylethanol] | 6.00 to 8.00 | 5.00 to 6.00
6 | COCCN(C)C/C=C/C(=O)N1C[C@@H]2[C@@H](C#Cc3c(-c4ccc(Oc5ccccn5)c(OC)c4)c4c(N)ncnc4n3C)[C@@H]2C1 [II-231, (E)-1-((1R,5S,6s)-6-((4-amino-5-(3-methoxy-4-(pyridin-2-yloxy)phenyl)-7-methyl-7H-pyrrolo[2,3-d]pyrimidin-6-yl)ethynyl)-3-azabicyclo[3.1.0]hexan-3-yl)-4-((2-methoxyethyl) (methyl)amino) but-2-en-1-one] | 6.00 to 8.00 | 6.00 to 8.00
7 | C=CC(=O)N1CCC(N2CC(C#Cc3c(-c4ccc(Oc5ccccn5)cc4)c4c(N)ncnc4n3C)C2)C[C@H]1CO (stereo partly drawn) [II-244, 1-((2S)-4-(3-((4-amino-7-methyl-5-(4-(pyridin-2-yloxy)phenyl)-7H-pyrrolo[2,3-d]pyrimidin-6-yl)ethynyl)azetidin-1-yl)-2-(hydroxymethyl)piperidin-1-yl)prop-2-en-1-one] | 6.00 to 8.00 | 6.00 to 8.00
8 | C=CC(=O)N1CCC(C#Cc2c(-c3ccc(Oc4ccccc4)cc3)c3c(N)ncnc3n2C(C)c2noc(COC)n2)CC1 (centres unmarked) [Example I-58] | 6.00 to 8.00 | 6.00 to 8.00
9 | CC(c1ccccc1)N1CCC(C#Cc2c(-c3ccc(Oc4ccccc4)cc3)c3c(N)ncnc3n2C(C)C)CC1 (centres unmarked) [II-144, 7-isopropyl-5-(4-phenoxyphenyl)-6-((1-(1-phenylethyl)piperidin-4-yl)ethynyl)-7H-pyrrolo[2,3-d]pyrimidin-4-amine] | 6.00 to 8.00 | 5.00 to 6.00
10 | CC(C)n1c(C#CC2CCN(S(C)(=O)=O)CC2)c(-c2ccc(Oc3ccccc3)cc2)c2c(N)ncnc21 [II-140, 7-isopropyl-6-((1-(methylsulfonyl)piperidin-4-yl)ethynyl)-5-(4-phenoxyphenyl)-7H-pyrrolo[2,3-d]pyrimidin-4-amine] | 6.00 to 8.00 | 6.00 to 8.00
11 | COc1cc(-c2c(C#C[C@@H]3[C@H]4CN(C(=O)/C=C/CN(C)C)C[C@@H]34)n(C)c3ncnc(N)c23)ccc1Oc1ccccn1 [II-233, (E)-1-((1R,5S,6s)-6-((4-amino-5-(3-methoxy-4-(pyridin-2-yloxy)phenyl)-7-methyl-7H-pyrrolo[2,3-d]pyrimidin-6-yl)ethynyl)-3-azabicyclo[3.1.0]hexan-3-yl)-4-(dimethylamino) but-2-en-1-one] | 6.00 to 8.00 | 6.00 to 8.00
12 | CC(C)n1c(C#CC2CCN(CCO)CC2)c(-c2ccc(Oc3ccccc3)cc2)c2c(N)ncnc21 [II-147, 2-(4-((4-amino-7-isopropyl-5-(4-phenoxyphenyl)-7H-pyrrolo[2,3-d]pyrimidin-6-yl)ethynyl)piperidin-1-yl)ethanol] | ≥ 8.00 | 6.00 to 8.00
13 | COCCN(C)C/C=C/C(=O)N1C[C@@H]2[C@@H](C#Cc3c(-c4ccc(Oc5cccc(C)n5)cc4OC)c4c(N)ncnc4n3C)[C@@H]2C1 [II-235, (E)-1-((1R,5S,6s)-6-((4-amino-5-(2-methoxy-4-((6-methylpyridin-2-yl)oxy)phenyl)-7-methyl-7H-pyrrolo[2,3-d]pyrimidin-6-yl)ethynyl)-3-azabicyclo[3.1.0]hexan-3-yl)-4-((2-methoxyethyl) (methyl)amino)but-2-en-1-one] | 6.00 to 8.00 | 5.00 to 6.00
14 | C=CC(=O)N1CCC(N2CC(C#Cc3c(-c4ccc(Oc5cccc(C)n5)c(OC)c4)c4c(N)ncnc4n3C)C2)C[C@H]1CO (stereo partly drawn) [II-242, 1-((2S)-4-(3-((4-amino-5-(3-methoxy-4-(6-methylpyridin-2-yloxy)phenyl)-7-methyl-7H-pyrrolo[2,3-d]pyrimidin-6-yl)ethynyl)azetidin-1-yl)-2-(hydroxymethyl)piperidin-1-yl)prop-2-en-1-one] | 6.00 to 8.00 | 6.00 to 8.00
15 | CC(CO)N1CCC(C#Cc2c(-c3ccc(Oc4ccccc4)cc3)c3c(N)ncnc3n2C(C)C)CC1 (centres unmarked) [II-146, 2-(4-((4-amino-7-isopropyl-5-(4-phenoxyphenyl)-7H-pyrrolo[2,3-d]pyrimidin-6-yl)ethynyl)piperidin-1-yl)propan-1-ol] | ≥ 8.00 | 6.00 to 8.00
16 | CC(C)n1c(C#CC2CCN(C(=O)/C=C/CN(C)C)CC2)c(-c2ccc(Oc3ccccc3)cc2)c2c(N)ncnc21 [Example I-48, (E)-1-(4-((4-amino-7-isopropyl-5-(4-phenoxyphenyl)-7H-pyrrolo[2,3-d]pyrimidin-6-yl)ethynyl)piperidin-1-yl)-4-(dimethylamino)but-2-en-1-one] | 6.00 to 8.00 | 6.00 to 8.00
17 | C=CC(=O)N1CCC(C#Cc2c(-c3ccc(Oc4ccccc4F)cc3)c3c(N)ncnc3n2C2CCOC2)CC1 (centres unmarked) [Example I-62] | 6.00 to 8.00 | 6.00 to 8.00
18 | C=CC(=O)NC1CC(C#Cc2c(-c3ccc(Oc4ccccc4)cc3)c3c(N)ncnc3n2C2CCOC2)C1 (centres unmarked) [Example I-71] | 6.00 to 8.00 | ≥ 8.00
19 | C=CC(=O)N1CCC(N2CC(C#Cc3c(-c4ccc(Oc5cccc(C)n5)c(OC)c4)c4c(N)ncnc4n3CC)C2)CC1 [II-121] | 6.00 to 8.00 | –
20 | Cn1c(C#CC2CCNCC2)c(-c2ccc(Oc3ccccc3)cc2)c2c(N)ncnc21 [II-159, 7-methyl-5-(4-phenoxyphenyl)-6-(piperidin-4-ylethynyl)-7H-pyrrolo[2,3-d]pyrimidin-4-amine] | 6.00 to 8.00 | –
21 | Nc1ncnc2c1c(-c1ccc(Oc3ccccc3)cc1)c(C#CC1CCNCC1)n2C1CCOC1 (centres unmarked) [II-155, 5-(4-phenoxyphenyl)-6-(piperidin-4-ylethynyl)-7-(tetrahydrofuran-3-yl)-7H-pyrrolo[2,3-d]pyrimidin-4-amine] | ≥ 8.00 | –
22 | CC(Cl)C(=O)N1CCC(C#Cc2c(-c3ccc(Oc4ccccc4)cc3)c3c(N)ncnc3n2C(C)C)CC1 (centres unmarked) [Example I-39] | 6.00 to 8.00 | –
23 | C=CS(=O)(=O)NC1CCC(C#Cc2c(-c3ccc(Oc4ccccc4)cc3)c3c(N)ncnc3n2C(C)C)CC1 (centres unmarked) [Example I-43] | ≥ 8.00 | –

Second part, led by results:

Row | pIC50 (SRC) | SMILES | pIC50 (RBE cells)
24 | 6.00 to 8.00 | Cn1c(C#CC2(O)CCN(C(=O)/C=C/CN3CCOCC3)CC2)c(-c2ccc(Oc3ccccc3)cc2)c2c(N)ncnc21 [III-39] | –
25 | 6.00 to 8.00 | C=CC(=O)N1CC2C(C#Cc3c(-c4ccc(Oc5ccccc5)cc4)c4c(N)ncnc4n3C)C2C1 (centres unmarked) [III-52] | –
26 | 6.00 to 8.00 | CN(C)C/C=C/C(=O)N1CCC(C#Cc2c(-c3ccc(Oc4ccccc4)cc3)c3c(N)ncnc3n2C2CCOC2)C1 (centres unmarked) [III-18] | –
27 | 6.00 to 8.00 | C=CC(=O)N1CCC(C#Cc2c(-c3ccc(Oc4ccccc4)cc3)c3c(N)ncnc3n2C2CCOC2)C1 (centres unmarked) [III-21] | –
28 | 6.00 to 8.00 | CN(C)C/C=C/C(=O)N1CCC(O)(C#Cc2c(-c3ccc(Oc4ccccc4)cc3)c3c(N)ncnc3n2C)CC1 [III-16] | –
29 | 6.00 to 8.00 | C=CC(=O)N1CCC(O)(C#Cc2c(-c3ccc(Oc4ccccc4)cc3)c3c(N)ncnc3n2C)C[C@H]1C (some centres unmarked) [III-48] | –
30 | 6.00 to 8.00 | Cn1c(C#CC2(O)CCN(C(=O)/C=C/CN3CCC3)CC2)c(-c2ccc(Oc3ccccc3)cc2)c2c(N)ncnc21 [III-50] | –
31 | 6.00 to 8.00 | CN(C)C/C=C/C(=O)N1CCC(C#Cc2c(-c3ccc(Oc4ccccc4)cc3)c3c(N)ncnc3n2C)CC1 [III-14] | –
32 | 6.00 to 8.00 | C=CC(=O)N[C@H]1CC[C@H](C#Cc2c(-c3ccc(Oc4ccccc4)cc3)c3c(N)ncnc3n2C)CC1 [III-58] | –
